Laboratory results reported in US20050054615A1, “Calmodulin independent activation of nitric oxide synthase” (Rensselaer Polytechnic Institute, priority 2002, published 2005).
Entries after “also recorded” stand apart in the source; their conditions may differ. Like-named read-outs stand apart in the source and are kept apart here. Blank lines part the entries; values can stand above or below the molecule they belong to.

Assays:
cNOS = assay: Activation of constitutive NOS by nucleotide ligands; assay type: biochemical
Description: The effect of 2′AMP on the optical spectra of reductase cofactors in eNOS was also examined for eNOS as isolated and reduced with 1 mM NADPH. eNOS only, eNOS NADPH, eNOS NADPH with 2′AMP, eNOS NADPH with 2′AMP and CAM, and NADPH 2′AMP were compared.
(§1) Nitric Oxide production was assayed using the Griess assay as adapted for microtiter plates (Gross, S. S. (1996) Methods Enzymol. 268:159-68); calcium dependence was measured using EDTA as a Ca+2 buffer system. […] NADPH-dependent cytochrome c reduction was measured spectrophotometrically as described by McMillan et al (McMillan, K., et al., (1992) Proc Nat. Acad. Sci. U.S.A. 89, 11141-11145), adapted to 96-well plate microtiter plates. In each well, the […] reaction mixture contained 50 mM Na+ TRIS buffer, pH 7.5, 50 uM EDTA, 50 uM NADPH, 50 uM horse heart cytochrome c, and ˜10 nM of nNOS. Cytochrome c reduction was monitored at 550 nm (ε=2.1×104/M). In Cam/Ca+2 dependence studies, 0.75 uM CaCl2 and […] calmodulin were added to reaction mixtures. Assays were performed on a SpectraMAX plate reader (Molecular Devices).

nNOS [1] = assay: Nitrite production (Griess) of wild type and mutant nNOS enzymes; assay type: biochemical, rat; conditions: activity of the enzyme preparation, based on heme content
Description: Expression and purification of wild type and mutant bovine eNOS and rat nNOS. Expression and purification of bovine eNOS and rat nNOS were performed using procedures similar to those previously described (Martasek, P.,et al., (1996) Biochem Biophys Res Commun. 219(2); 359-65). Transformed cells were broken with a French press, and after centrifugation to remove cell debris the supernatant was loaded on a 2′5′ADP affinity column, washed, and eluted with 2′AMP as described (id). High purity preparations can be obtained with a size exclusion step; we used a Superose 6 HR 10/30 column (Pharmacia Biotech AB, Uppsala, Sweden), flow rate 0.4 mL/min, buffer composition −50 mM Tris-HCl, pH 7.5, 0.1 mM EDTA, 1 mM-mercaptoethanol, 100 mM NaCl, 10% glycerol (vol/vol). During the purification procedure BH4 or L-arginine were added after elution from the affinity column. Enzyme sample concentrations were determined on the basis of heme concentration, except in heme free preparations, where the flavin concentration was measured. UV-visible absorbance spectra were recorded on an Aminco DW-2000 spectrophotometer.
as §1

eNOS [2] = target: T1, eNOS (Bos taurus, UniProt P29473); assay: NADPH-dependent cytochrome c reduction (electron transfer), eNOS; assay type: biochemical, bovine
T1 construct: further column purification with gel filtration or anion exchange produces very pure full length NOS; made in house; host or cells: E. coli BL21 (pCWori+)
T1 sequence (P29473 1-1205): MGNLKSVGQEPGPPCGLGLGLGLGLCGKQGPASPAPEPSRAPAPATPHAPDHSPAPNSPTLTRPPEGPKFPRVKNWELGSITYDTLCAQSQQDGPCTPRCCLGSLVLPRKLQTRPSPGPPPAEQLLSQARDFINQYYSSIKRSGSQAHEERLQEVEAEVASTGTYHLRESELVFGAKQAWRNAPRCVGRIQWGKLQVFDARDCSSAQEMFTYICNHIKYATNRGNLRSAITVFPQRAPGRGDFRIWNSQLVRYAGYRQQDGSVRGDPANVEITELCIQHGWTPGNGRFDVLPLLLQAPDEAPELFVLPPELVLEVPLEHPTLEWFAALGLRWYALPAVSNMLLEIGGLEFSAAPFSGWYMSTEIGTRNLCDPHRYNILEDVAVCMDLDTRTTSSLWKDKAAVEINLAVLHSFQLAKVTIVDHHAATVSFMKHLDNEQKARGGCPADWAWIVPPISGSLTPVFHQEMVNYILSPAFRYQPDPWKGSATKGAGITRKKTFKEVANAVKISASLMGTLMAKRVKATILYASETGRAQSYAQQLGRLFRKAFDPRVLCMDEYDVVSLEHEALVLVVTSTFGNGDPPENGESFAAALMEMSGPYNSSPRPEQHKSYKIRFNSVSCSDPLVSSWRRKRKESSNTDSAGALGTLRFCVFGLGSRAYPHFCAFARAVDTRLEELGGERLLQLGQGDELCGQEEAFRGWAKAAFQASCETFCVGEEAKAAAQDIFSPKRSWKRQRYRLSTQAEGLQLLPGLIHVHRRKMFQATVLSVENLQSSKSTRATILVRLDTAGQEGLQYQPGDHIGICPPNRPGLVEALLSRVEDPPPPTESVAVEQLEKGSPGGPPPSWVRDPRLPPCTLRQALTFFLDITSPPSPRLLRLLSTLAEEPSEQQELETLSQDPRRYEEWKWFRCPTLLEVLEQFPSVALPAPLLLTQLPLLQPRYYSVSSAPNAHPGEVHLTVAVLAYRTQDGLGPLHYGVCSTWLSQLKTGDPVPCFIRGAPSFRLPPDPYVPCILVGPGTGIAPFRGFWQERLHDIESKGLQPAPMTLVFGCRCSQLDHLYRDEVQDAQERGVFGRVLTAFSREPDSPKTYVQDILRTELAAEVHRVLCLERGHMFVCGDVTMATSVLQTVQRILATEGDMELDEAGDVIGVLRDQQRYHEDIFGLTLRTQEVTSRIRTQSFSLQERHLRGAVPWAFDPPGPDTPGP

nNOS [3] = target: T2, nNOS (Rattus norvegicus, UniProt P29476); assay: NADPH-dependent cytochrome c reduction (electron transfer), nNOS; assay type: biochemical
T2 construct: further column purification with gel filtration or anion exchange produces very pure full length NOS; made in house; host or cells: E. coli BL21 (pCWori+)
T2 sequence (P29476 whole entry): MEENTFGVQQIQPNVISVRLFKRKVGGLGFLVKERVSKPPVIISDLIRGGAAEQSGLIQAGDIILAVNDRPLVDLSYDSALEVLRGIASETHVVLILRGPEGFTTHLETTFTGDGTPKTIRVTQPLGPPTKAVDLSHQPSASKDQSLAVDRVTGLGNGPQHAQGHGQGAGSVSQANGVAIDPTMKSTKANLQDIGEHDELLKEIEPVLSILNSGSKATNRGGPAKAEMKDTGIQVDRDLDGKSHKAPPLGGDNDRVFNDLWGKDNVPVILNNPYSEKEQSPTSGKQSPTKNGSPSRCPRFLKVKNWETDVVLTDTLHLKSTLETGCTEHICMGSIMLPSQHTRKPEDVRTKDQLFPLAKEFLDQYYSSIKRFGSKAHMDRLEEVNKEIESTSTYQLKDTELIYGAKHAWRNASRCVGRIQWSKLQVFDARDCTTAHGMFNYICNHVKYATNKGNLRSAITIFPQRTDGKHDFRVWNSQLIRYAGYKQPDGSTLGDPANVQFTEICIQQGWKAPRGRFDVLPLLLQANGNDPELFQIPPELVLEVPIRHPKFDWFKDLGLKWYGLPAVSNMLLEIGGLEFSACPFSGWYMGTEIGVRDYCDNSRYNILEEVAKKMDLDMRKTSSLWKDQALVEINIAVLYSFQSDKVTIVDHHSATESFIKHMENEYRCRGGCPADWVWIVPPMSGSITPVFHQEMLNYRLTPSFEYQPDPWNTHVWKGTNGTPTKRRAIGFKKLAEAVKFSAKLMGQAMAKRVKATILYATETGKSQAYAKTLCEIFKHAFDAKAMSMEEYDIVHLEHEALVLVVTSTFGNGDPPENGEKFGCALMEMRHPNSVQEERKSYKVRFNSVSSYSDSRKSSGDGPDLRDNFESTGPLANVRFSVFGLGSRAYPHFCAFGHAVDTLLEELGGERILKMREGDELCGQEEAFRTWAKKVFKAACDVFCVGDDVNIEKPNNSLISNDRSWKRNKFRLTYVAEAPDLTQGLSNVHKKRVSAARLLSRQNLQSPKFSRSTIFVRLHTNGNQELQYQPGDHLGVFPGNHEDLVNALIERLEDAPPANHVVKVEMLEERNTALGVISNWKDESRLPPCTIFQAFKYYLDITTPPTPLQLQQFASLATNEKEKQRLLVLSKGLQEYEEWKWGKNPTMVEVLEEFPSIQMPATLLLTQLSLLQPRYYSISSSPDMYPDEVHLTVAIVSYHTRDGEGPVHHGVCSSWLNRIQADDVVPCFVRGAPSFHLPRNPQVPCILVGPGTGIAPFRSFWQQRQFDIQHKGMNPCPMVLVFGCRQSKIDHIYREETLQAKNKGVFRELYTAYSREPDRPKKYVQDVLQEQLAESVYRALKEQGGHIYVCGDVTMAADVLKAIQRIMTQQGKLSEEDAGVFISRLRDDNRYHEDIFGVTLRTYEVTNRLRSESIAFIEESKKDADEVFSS

iNOS = target: T3, iNOS (Mus musculus, UniProt P29477); assay: Effect of NADPH analogs on iNOS electron transfer; assay type: biochemical, murine; conditions: Tris buffer, absence of calmodulin
T3 construct: made in house; host or cells: E. coli
T3 sequence (P29477 1-1144): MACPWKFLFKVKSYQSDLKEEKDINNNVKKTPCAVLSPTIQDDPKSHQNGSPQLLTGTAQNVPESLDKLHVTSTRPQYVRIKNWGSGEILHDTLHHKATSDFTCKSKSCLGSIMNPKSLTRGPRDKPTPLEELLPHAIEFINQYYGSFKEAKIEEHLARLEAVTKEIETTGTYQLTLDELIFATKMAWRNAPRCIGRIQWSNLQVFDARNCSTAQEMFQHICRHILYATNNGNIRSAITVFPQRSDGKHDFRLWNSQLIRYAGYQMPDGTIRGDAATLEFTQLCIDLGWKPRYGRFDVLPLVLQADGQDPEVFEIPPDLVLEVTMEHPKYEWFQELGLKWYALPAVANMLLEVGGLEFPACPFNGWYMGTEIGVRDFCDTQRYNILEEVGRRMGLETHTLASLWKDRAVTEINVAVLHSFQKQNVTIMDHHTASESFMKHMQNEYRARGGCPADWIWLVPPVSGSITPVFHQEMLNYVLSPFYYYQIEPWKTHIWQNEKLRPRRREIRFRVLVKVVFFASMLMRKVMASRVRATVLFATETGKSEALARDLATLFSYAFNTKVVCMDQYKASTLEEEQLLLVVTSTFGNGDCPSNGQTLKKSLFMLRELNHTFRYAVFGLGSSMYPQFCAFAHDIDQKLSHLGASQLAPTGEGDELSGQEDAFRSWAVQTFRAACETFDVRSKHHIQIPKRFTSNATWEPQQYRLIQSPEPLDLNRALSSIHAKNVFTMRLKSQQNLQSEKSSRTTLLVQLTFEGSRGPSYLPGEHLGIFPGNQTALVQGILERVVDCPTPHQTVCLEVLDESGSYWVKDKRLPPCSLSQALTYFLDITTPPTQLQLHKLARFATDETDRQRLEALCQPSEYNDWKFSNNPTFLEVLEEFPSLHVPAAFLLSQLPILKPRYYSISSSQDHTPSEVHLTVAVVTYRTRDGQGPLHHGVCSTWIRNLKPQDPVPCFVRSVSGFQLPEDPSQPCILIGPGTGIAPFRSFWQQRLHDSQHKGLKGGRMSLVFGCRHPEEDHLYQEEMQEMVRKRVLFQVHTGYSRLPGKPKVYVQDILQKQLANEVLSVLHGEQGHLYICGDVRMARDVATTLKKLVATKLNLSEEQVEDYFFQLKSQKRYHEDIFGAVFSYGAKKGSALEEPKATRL

eNOS [4] = target: T4, eNOS (Bos taurus, UniProt P29473); assay: Griess assay of NO production by eNOS; assay type: biochemical, bovine; conditions: for eNOS activity relative to eNOS activated by CaM alone: initial concentrations of NADPH and 2′AMP equal, presence of calcium/CaM
T4 construct: further column purification with gel filtration or anion exchange produces very pure full length NOS; made in house; host or cells: E. coli BL21 (pCWori+)
Description: as §1
Titration of eNOS with 2′AMP in the presence of ‘fully’ activating levels of Ca+2/CaM was performed using a Greiss assay (see, e.g., the Griess Reagent System, Promega Corporation, Madison, Wis.; and manufacturer's instructions for use). Calcium stoichometries were between two and four. The titration produced an additional activation corresponding to an apparent Kd of ˜1 mM. […] In the most widely used assay systems eNOS is 2-3 fold hyperactivated by 2′AMP (Greiss assay). Enhanced levels of cytochrome c reduction (2-5 fold) can also be observed in both eNOS and nNOS.

[5] = comparison of nucleotide ligands

Molecule: Nc1nc2c(ncn2[C@@H]2O[C@H](COP(=O)(O)OP(=O)(O)OP(=O)(O)O)[C@@H](O)[C@H]2O)c(=O)[nH]1 [GTP]
function as NOS activator (cNOS; [5]): did not function as activators

Nitrite production (nNOS [1]): 179.8 nmoles/min/mg NOS
Molecule: G1074D mutant: rat nNOS small insertion mutant, Gly 1074 replaced by Asp

activation of electron transfer by ATP (eNOS [2]; wild type eNOS, Tris buffer, absence of calmodulin): activation of electron transfer
activation of electron transfer by ATP (nNOS [3]; wild type nNOS, Tris buffer, absence of calmodulin): activation of electron transfer
Molecule: Nc1ncnc2c1ncn2[C@@H]1O[C@H](COP(=O)(O)OP(=O)(O)OP(=O)(O)O)[C@@H](O)[C@H]1O [ATP]
inhibition of iNOS (iNOS): INOS is inhibited; also recorded: inhibition of INOS

Molecule: Nc1nc2c(ncn2[C@@H]2O[C@@H]3COP(=O)(O)O[C@H]3[C@H]2O)c(=O)[nH]1 [cyclic GMP]
function as NOS activator (cNOS; [5]): did not function as activators

Nitrite production (nNOS [1]): 186.2 nmoles/min/mg NOS
Molecule: G1074Y mutant: rat nNOS small insertion mutant, Gly 1074 replaced by Tyr

Molecule: Nc1ncnc2c1ncn2[C@@H]1O[C@@H]2COP(=O)(O)O[C@H]2[C@H]1O [Cyclic AMP]
function as NOS activator (cNOS): did not function as activators

hyperactivation of eNOS (eNOS [4]; Good's buffer systems (e.g., HEPES or MOPS), with Ca+2/CaM): 2-3 fold
eNOS activity relative to eNOS activated by CaM alone (eNOS [4]): 2-3 times
eNOS activity relative to eNOS activated by CaM alone (eNOS [4]; listed as 2′ AMP): 3-5 times
hyperactivation of eNOS (eNOS [4]; most widely used assay systems, Greiss assay): 2-3 fold
Kd (eNOS [4]; titration of eNOS in the presence of 'fully' activating levels of Ca+2/CaM, plate reader Greiss assay, read-out: apparent Kd of additional activation): ~1000 µM
enhanced level (activation) of cytochrome c reduction (eNOS [2]; eNOS): 2-5 fold
enhanced level (activation) of cytochrome c reduction (nNOS [3]; nNOS): 2-5 fold
Molecule: Nc1ncnc2c1ncn2[C@@H]1O[C@H](CO)[C@@H](O)[C@H]1OP(=O)(O)O [2′AMP]
activation of cNOS in the absence of calmodulin (cNOS; absence of calmodulin, particularly in Tris buffer): activated cNOS in the absence of calmodulin

Molecule: Nc1ncnc2c1ncn2[C@@H]1O[C@H](COP(=O)(O)O)[C@@H](OP(=O)(O)O)[C@H]1O [3′5′ ADP]
function as NOS activator (cNOS; [5]): only a very weak activator

Molecule: wild-type nNOS: wild type rat neuronal nitric oxide synthase expressed in E. coli
Nitrite production (nNOS [1]): 292.2 nmoles/min/mg NOS

Molecule: Nc1nc2c(ncn2[C@@H]2O[C@H](COP(=O)(O)OP(=O)(O)O)[C@@H](O)[C@H]2O)c(=O)[nH]1 [GDP]
function as NOS activator (cNOS; [5]): did not function as activators
